Results reported in patent publication US10039753B2, “Imidazo[4,5-c]quinoline and imidazo[4,5-c][1,5]naphthyridine derivatives as LRRK2 inhibitors” (Pfizer Inc., priority 2015, dated 2018).
Where a name gives a salt, the structure may show the parent alone. Read-outs that look alike come from different tables or passages of the source.

Tests used:
mutant G2019S LRRK2 = mutant G2019S LRRK2 (Homo sapiens, UniProt Q5S007, G2019S); assay: LRRK2 Assay, Format 2 (Lantha Screen), G2019S mutant; type: biochemical; set-up: purchased Invitrogen PV4881
Chain of mutant G2019S LRRK2 (Q5S007 970-2527 G2019S limits assumed): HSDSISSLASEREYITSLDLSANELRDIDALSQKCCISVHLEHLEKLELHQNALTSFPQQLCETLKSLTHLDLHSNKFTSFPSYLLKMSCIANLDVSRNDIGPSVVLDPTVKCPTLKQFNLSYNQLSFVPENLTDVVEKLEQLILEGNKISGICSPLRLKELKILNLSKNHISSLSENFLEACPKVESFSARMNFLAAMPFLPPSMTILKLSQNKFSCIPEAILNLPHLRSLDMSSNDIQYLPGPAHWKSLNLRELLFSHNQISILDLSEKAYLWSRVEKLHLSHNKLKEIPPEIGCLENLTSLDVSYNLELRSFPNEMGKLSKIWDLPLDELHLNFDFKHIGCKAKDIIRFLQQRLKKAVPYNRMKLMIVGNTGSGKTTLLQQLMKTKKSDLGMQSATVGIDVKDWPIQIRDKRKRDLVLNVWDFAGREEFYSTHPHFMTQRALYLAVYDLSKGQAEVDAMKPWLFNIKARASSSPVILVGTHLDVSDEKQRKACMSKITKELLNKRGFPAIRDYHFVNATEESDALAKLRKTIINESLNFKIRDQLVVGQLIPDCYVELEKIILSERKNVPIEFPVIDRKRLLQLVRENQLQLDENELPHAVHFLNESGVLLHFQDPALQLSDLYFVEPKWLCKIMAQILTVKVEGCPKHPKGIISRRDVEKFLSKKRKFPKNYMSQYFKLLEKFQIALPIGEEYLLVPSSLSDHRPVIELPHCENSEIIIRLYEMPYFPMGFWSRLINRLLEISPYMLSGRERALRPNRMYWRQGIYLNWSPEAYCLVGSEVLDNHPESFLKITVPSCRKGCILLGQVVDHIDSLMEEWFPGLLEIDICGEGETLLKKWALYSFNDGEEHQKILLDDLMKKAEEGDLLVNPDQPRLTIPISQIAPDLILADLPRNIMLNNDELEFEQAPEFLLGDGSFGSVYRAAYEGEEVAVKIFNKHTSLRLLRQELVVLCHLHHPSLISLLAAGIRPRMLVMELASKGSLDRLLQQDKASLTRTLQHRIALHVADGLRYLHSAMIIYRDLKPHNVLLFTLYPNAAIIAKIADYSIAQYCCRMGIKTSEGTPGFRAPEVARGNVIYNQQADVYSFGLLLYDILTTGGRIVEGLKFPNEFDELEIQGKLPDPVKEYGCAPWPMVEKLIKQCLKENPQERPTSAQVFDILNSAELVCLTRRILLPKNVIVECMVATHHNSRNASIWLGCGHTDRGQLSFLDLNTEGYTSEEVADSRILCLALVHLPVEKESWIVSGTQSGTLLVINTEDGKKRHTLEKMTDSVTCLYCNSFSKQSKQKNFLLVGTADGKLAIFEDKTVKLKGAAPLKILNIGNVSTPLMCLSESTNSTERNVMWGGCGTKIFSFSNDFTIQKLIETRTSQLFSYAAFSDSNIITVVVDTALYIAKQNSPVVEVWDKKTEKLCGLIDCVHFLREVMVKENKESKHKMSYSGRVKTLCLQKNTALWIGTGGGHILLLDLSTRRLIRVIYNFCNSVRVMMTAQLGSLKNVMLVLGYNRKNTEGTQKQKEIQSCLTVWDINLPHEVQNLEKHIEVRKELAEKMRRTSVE
Method: (§1) LRRK2 kinase activity was measured using Lantha Screen technology from Invitrogen. GST-tagged truncated LRRK2 from Invitrogen (Cat # PV4874) was incubated with a fluorescein-labeled peptide substrate based upon ezrin/radixin/moesin (ERM), also known as LRRKtide (Invitrogen cat # PR8976A), in the presence of a dose response of compound. Upon completion, the assay was stopped and detected with a terbium labeled anti-phospho-ERM antibody (Invitrogen, cat # PR8975A). […] Using Echo acoustic dispensing, 60 nL of compound was transferred to a low volume Corning 384-well assay plate. 3 μL of a working solution of substrate (200 nM LRRKtide, […]) prepared in assay buffer (50 mM HEPES, pH 7.5, 3 mM MgCl2, with 2 mM DTT and 0.01% Brij35 added fresh) was added to the 60 nL compound assay plate. The kinase reaction was started with […] of a working solution of LRRK2 enzyme at a concentration of […]. The final reaction concentrations were 100 nM LRRKtide, […], […] LRRK2 enzyme and a compound dose response with a top dose of 3 mM. The reaction was allowed to progress at room temperature for 30 minutes and then stopped with the addition of […] of detection buffer (20 mM Tris pH 7.6, 0.01% NP-40, 6 mM EDTA with 2 nM terbium labeled anti-phospho-ERM). After an incubation of 1 hour at room temperature, the plate was read on an Envision with an excitation wavelength of 340 nm and a reading emission at both 520 nm and 495 nm. The ratio of the 520 nm and 495 nm emission was used to analyze the data. Inhibition of mutant G2019S LRRK2 (Invitrogen cat # PV4881) was measured in the exact same method. All final concentrations of substrate ATP and enzyme were the same.

[1] = target: T1, GST-tagged truncated LRRK2 (Homo sapiens, UniProt Q5S007); assay: LRRK2 Assay, Format 2 (Lantha Screen), WT; type: biochemical
T1 construct: GST-tagged truncated LRRK2 from Invitrogen (Cat # PV4874); GST; purchased Invitrogen PV4874
T1 sequence (Q5S007 970-2527 limits assumed): as the sequence (Q5S007 970-2527 G2019S limits assumed) above, with S1050G counted along it
Method: as §1

[2] = geometric mean of 2-4 determinations unless otherwise indicated (a: >=5; b: single determination), read-out: LRRK2, Format 2 G2019S IC50
[3] = geometric mean of 2-4 determinations unless otherwise indicated (a: >=5; b: single determination)

Compound	IC50 (mutant G2019S LRRK2; [2])	IC50 [1, 3]	IC50 (mutant G2019S LRRK2; 100 nM LRRKtide, 1000 mM ATP (so in the source), 30 minutes at room temperature, read-out: LRRK2, Format 2 G2019S mutant IC50)	IC50 ([1]; 100 nM LRRKtide, 1000 mM ATP (so in the source), 30 minutes at room temperature)
CC(F)(F)Cn1c(Cn2cc(C(F)(F)F)cn2)nc2cnc3ccc(C#N)cc3c21 [Example 227, 1-(2,2-difluoropropyl)-2-{[4-(trifluoromethyl)-1H-pyrazol-1-yl]methyl}-1H-imidazo[4,5-c]quinoline-8-carbonitrile]	10.8 nM	9.06 nM		
Cc1cn(Cc2nc3cnc4ccc(Cl)cc4c3n2C2CCOC(C)(C)C2)nn1 (stereo not drawn) [Example 148, 8-chloro-1-(2,2-dimethyltetrahydro-2H-pyran-4-yl)-2-[(4-methyl-1H-1,2,3-triazol-1-yl)methyl]-1H-imidazo[4,5-c]quinoline, formate salt]	13.6 nM	12.6 nM		
Cc1cc(Cc2nc3cnc4ccc(C#N)cc4c3n2C2CCOC(C)(C)C2)no1 (stereo not drawn) [Example 239, 1-(2,2-dimethyltetrahydro-2H-pyran-4-yl)-2-[(5-methyl-1,2-oxazol-3-yl)methyl]-1H-imidazo[4,5-c]quinoline-8-carbonitrile, formate salt]	10.8 nM	9.74 nM		
C[C@@H]1C[C@H](n2c(Cn3cnnn3)nc3cnc4ccc(Cl)cc4c32)CCO1 [Example 129, 8-chloro-1-[(2R,4R)-2-methyltetrahydro-2H-pyran-4-yl]-2-(1H-tetrazol-1-ylmethyl)-1H-imidazo[4,5-c]quinoline, formate salt]	4.17 nM	3.64 nM		
Cc1cc(Cc2nc3cnc4ccc(C#N)cc4c3n2C2CCCC2(F)F)no1 (single isomer, unassigned; ent-2) [Example 144, 1-(2,2-difluorocyclopentyl)-2-[(5-methyl-1,2-oxazol-3-yl)methyl]-1H-imidazo[4,5-c]quinoline-8-carbonitrile, ENT-2]	29.3 nM	19.3 nM		
CC1(C)CC(n2c(Cn3cnnn3)nc3cnc4ccc(Cl)cc4c32)CCO1 (stereo not drawn) [Example 150, 8-chloro-1-(2,2-dimethyltetrahydro-2H-pyran-4-yl)-2-(1H-tetrazol-1-ylmethyl)-1H-imidazo[4,5-c]quinoline, formate salt]	12.1 nM	11.6 nM		
Cc1cc(Cc2nc3cnc4ccc(C#N)cc4c3n2[C@@H]2CCC[C@@H]2F)no1 (single isomer, unassigned; ent-1) [Example 146, 1-(cis-2-fluorocyclopentyl)-2-[(5-methyl-1,2-oxazol-3-yl)methyl]-1H-imidazo[4,5-c]quinoline-8-carbonitrile, ENT-1]	29.9 nM	17.8 nM		
N#Cc1ccc2ncc3nc(Cn4cc(C(F)(F)F)cn4)n([C@@H]4CC[C@H](F)C4)c3c2c1 (single isomer, unassigned; ent-1) [Example 201, 1-(cis-3-fluorocyclopentyl)-2-{[4-(trifluoromethyl)-1H-pyrazol-1-yl]methyl}-1H-imidazo[4,5-c]quinoline-8-carbonitrile, ENT-1]	11.3 nM	7.47 nM		
CC1(C)CC(n2c(Cc3cc(C(F)(F)F)on3)nc3cnc4ccc(C#N)cc4c32)CCO1 (single isomer, unassigned; ent-2) [Example 177, 1-(2,2-dimethyltetrahydro-2H-pyran-4-yl)-2-{[5-(trifluoromethyl)-1,2-oxazol-3-yl]methyl}-1H-imidazo[4,5-c]quinoline-8-carbonitrile, ENT-2]	914 nM	1220 nM		
Cc1nnn(Cc2nc3cnc4ccc(Cl)cc4c3n2[C@@H]2CCO[C@H](C)C2)n1 [Example 206, 8-chloro-1-[(2R,4R)-2-methyltetrahydro-2H-pyran-4-yl]-2-[(5-methyl-2H-tetrazol-2-yl)methyl]-1H-imidazo[4,5-c]quinoline]	9.57 nM	10.4 nM		

Now from value to molecule:

IC50 (mutant G2019S LRRK2; [2])	IC50 [1, 3]	IC50 (mutant G2019S LRRK2; 100 nM LRRKtide, 1000 mM ATP (so in the source), 30 minutes at room temperature, read-out: LRRK2, Format 2 G2019S mutant IC50)	IC50 ([1]; 100 nM LRRKtide, 1000 mM ATP (so in the source), 30 minutes at room temperature)	Compound
6.84 nM	7.53 nM			COc1ccc(Cc2nc3cnc4ccc(C#N)cc4c3n2C2CCOC(C)(C)C2)nc1 (single isomer, unassigned; ent-2) [Example 207, 1-(2,2-dimethyltetrahydro-2H-pyran-4-yl)-2-[(5-methoxypyridin-2-yl)methyl]-1H-imidazo[4,5-c]quinoline-8-carbonitrile, ENT-2]
		26.1 nM	22.4 nM	Cc1cc(Cc2nc3cnc4ccc(C#N)cc4c3n2C2CCC(F)C2)on1 (single isomer, unassigned; ent-2) [enantiomer of Example 118, 1-(cis-3-fluorocyclopentyl]-2-[(3-methyl-1,2-oxazol-5-yl)methyl]-1H-imidazo[4,5-c]quinoline-8-carbonitrile, ENT-2]
3.84 nM	3.43 nM			C[C@@H]1C[C@H](n2c(Cn3cccn3)nc3cnc4ccc(Cl)cc4c32)CCO1 [Example 130, 8-chloro-1-[(2R,4R)-2-methyltetrahydro-2H-pyran-4-yl]-2-(1H-pyrazol-1-ylmethyl)-1H-imidazo[4,5-c]quinoline, formate salt]
2.79 nM	2.76 nM			C[C@@H]1C[C@H](n2c(Cc3cc(CF)on3)nc3cnc4ccc(Cl)cc4c32)CCO1 [Example 139, 8-chloro-2-{[5-(fluoromethyl)-1,2-oxazol-3-yl]methyl}-1-[(2R,4R)-2-methyltetrahydro-2H-pyran-4-yl]-1H-imidazo[4,5-c]quinoline]
32.6 nM	37.3 nM			C[C@@H]1C[C@H](n2c(Cc3cnns3)nc3cnc4ccc(Cl)cc4c32)CCO1 [Example 193, 8-chloro-1-[(2R,4R)-2-methyltetrahydro-2H-pyran-4-yl]-2-(1,2,3-thiadiazol-5-ylmethyl)-1H-imidazo[4,5-c]quinoline]
18.6 nM	16.9 nM			C[C@@H]1C[C@H](n2c(Cc3cnccn3)nc3cnc4ccc(Cl)cc4c32)CCO1 [Example 249, 8-chloro-1-[(2R,4R)-2-methyltetrahydro-2H-pyran-4-yl]-2-(pyrazin-2-ylmethyl)-1H-imidazo[4,5-c]quinoline, trifluoroacetate salt]
3.71 nM	4.01 nM			C[C@@H]1C[C@H](n2c(Cc3noc4ccccc34)nc3cnc4ccc(C#N)cc4c32)CCO1 [Example 154, 2-(1,2-benzoxazol-3-ylmethyl)-1-[(2R,4R)-2-methyltetrahydro-2H-pyran-4-yl]-1H-imidazo[4,5-c]quinoline-8-carbonitrile, formate salt]
5.22 nM	6.01 nM			C[C@@H]1C[C@H](n2c(Cc3cn4ccccc4n3)nc3cnc4ccc(C#N)cc4c32)CCO1 [Example 158, 2-(imidazo[1,2-a]pyridin-2-ylmethyl)-1-[(2R,4R)-2-methyltetrahydro-2H-pyran-4-yl]-1H-imidazo[4,5-c]quinoline-8-carbonitrile, formate salt]
7.26 nM	8.48 nM			Cc1ccc(Cc2nc3cnc4ccc(C#N)cc4c3n2[C@@H]2CCO[C@H](C)C2)nc1 [Example 232, 2-[(5-methylpyridin-2-yl)methyl]-1-[(2R,4R)-2-methyltetrahydro-2H-pyran-4-yl]-1H-imidazo[4,5-c]quinoline-8-carbonitrile]
16.8 nM	15.2 nM			Cc1cnn(Cc2nc3cnc4ccc(F)cc4c3n2[C@@H]2CCO[C@H](C)C2)c1 [Example 198, 8-fluoro-2-[(4-methyl-1H-pyrazol-1-yl)methyl]-1-[(2R,4R)-2-methyltetrahydro-2H-pyran-4-yl]-1H-imidazo[4,5-c]quinoline]
8.99 nM	11.8 nM			Cc1nc(Cc2nc3cnc4ccc(C#N)cc4c3n2[C@@H]2CCO[C@H](C)C2)c(C2CC2)o1 [Example 155, 2-[(5-cyclopropyl-2-methyl-1,3-oxazol-4-yl)methyl]-1-[(2R,4R)-2-methyltetrahydro-2H-pyran-4-yl]-1H-imidazo[4,5-c]quinoline-8-carbonitrile, formate salt]
33.5 nM	29.3 nM			Cc1cc(Cc2nc3cnc4ccc(C#N)cc4c3n2[C@H]2CC[C@@H](F)C2)no1 [Example 241, 1-[(1S,3R)-3-fluorocyclopentyl]-2-[(5-methyl-1,2-oxazol-3-yl)methyl]-1H-imidazo[4,5-c]quinoline-8-carbonitrile, formate salt]
35.7 nM	51.8 nM			Cc1cc(Cc2nc3cnc4ccc(C#N)cc4c3n2[C@H]2CC[C@H](O)CC2)no1 [Example 240, 1-(trans-4-hydroxycyclohexyl)-2-[(5-methyl-1,2-oxazol-3-yl)methyl]-1H-imidazo[4,5-c]quinoline-8-carbonitrile, formate salt]
11 nM	10.4 nM			C[C@@H]1C[C@H](n2c(Cc3ccccn3)nc3cnc4ccc(Cl)cc4c32)CCO1 [Example 250, 8-chloro-1-[(2R,4R)-2-methyltetrahydro-2H-pyran-4-yl]-2-(pyridin-2-ylmethyl)-1H-imidazo[4,5-c]quinoline, formate salt]
